Assay results: patent US4673678A, “Water soluble derivatives of fredericamycin A” (The United States of America as represented by the …, priority 1986, dated 1987)
Counter-ions that a name gives are not always drawn. Like-named read-outs stand apart in the source and are kept apart here.

Tests used:
solubility [1] = assay type: physicochemical; details: for solubility: water
Method: The potassium salt of fredericamycin A (NSC #601617) is soluble in water with hand shaking for 1 minute, followed by vortexing for 3 minutes. The solubility is about 1.0 mg/ml and gives a transparent blue solution, pH 8.65 with no residue upon membrane filtration (0.22μ, HA, Millipore Products).
Fredericamycin A (15 mg, 0.0278 mmols) is treated with NaOH solution, 1:3 mols (7.65 mls; 0.0109N, degased previously and cooled to 0° C.) in pyridine solution at 0° C. (2.5 ml, degased) under N2 atmosphere. Reaction is carried out by stirring magnetically for 60 minutes under N2 atmosphere. (40 minutes at 0° C. and 20 minutes at 15° C.). The progress of reaction is followed by TLC, HPLC (of hydrolysed product of the Rx mixture) and UV. The resultant blue-green clear reaction mixture is frozen (-70° C.) and lyophilized (48 hrs) until a solid is obtained. […] It is soluble in water (0.5 mg/ml) with hand shake and sonication (15 minutes). […] TLC and HPLC (after hydrolysis) show single spot and single peak respectively showing that the product is pure.
The first indication of the salt formation is observed by solubility studies in water.

pH of aqueous solution = assay type: physicochemical
P388 Lymph. Leukemia = assay: in vivo antitumor activity against P388 leukemia; parameters: species or system CD2F1 mice; details: for % T/C / % T/C: toxicity: i.p.
Method: The antitumor activity is determined by contracted accessary testing services according to the National Cancer Institute (NCI) guidelines for natural products (Geran et al. protocols for Screening Chemical Agents and Natural Products Against Animal Tumors and other Biological Systems. Cancer Chemother. Rep. part 3, 3:7-61, 1972; Schepartz: Antitumor Screening Procedures of the National Cancer Institute. Japan J. Antibiotics 30 (Supl): 35-40, 1977.)
Alkali metal salt of FMA is tested in vivo against P338 leukemia. The test is carried out using male CD2F1 mice (wt.=18 g±3 g) in one experiment and female mice (wt, 17 g±3.0 gm) in another experiment. […]
*T/C is the ratio expressed in percent of the median survival time of the
treated group divided by the median survival time of the control group.
NCI criteria of positive (moderate) activity in P388 Leukemia is indicate
by a T/C value of 120%. A T/C value of ≥ 175% is indicative of
**DMSO = Dimethylsulfoxide; i.p = intraperitoneal route of injection.
Potassium salt of fredericamycin A was dissolved in water only.

[2] = test system: P388 ascites murine leukemia; assay: in vitro cytotoxicity, Microculture Tetrazolium Assay (MTA), P388; assay type: cell-based; details: P388, 5 days culture, FIG. 5
Text: The assay used for determining in vitro cytotoxic activity of alkali metal salt of FMA is known as "Microculture Tetrazolium Assay" (MTA) developed by the in vitro Cancer Pharmacology R & D Laboratory at NCI-FCRF. The method utilized is a modification of Procedure by T. Mosmann et al., (J. Immunol. Meth. 65:55, 1983 and 70:257, 1984) described by M. C. Alley et al (Proc. AACR. 27:389, 1986). The testing of alkali metal salt of FMA is done using P388 acites murine leukemia as the test system at a inoculation density of about 1000 cells per well and culture duration of 5 days, with various concentration levels of alkali metal salt of FMA vs fredericamycin A. The concentration range could be from 0.1 μg to 10 μg per ml. The results are recorded as percent of control O.D. for each sample dilution.

solubility [3] = assay type: physicochemical
[4] = test system: gram positive bacteria (Bacillus subtilis); assay: antimicrobial activity, disc method, bacteria; assay type: cell-based; details: concentration 0.025 to 5 μg/ml
Method: (§1) Protocol for determining antimicrobial activity against Bacillus subtilis and Penicillium notatum
(§2) These were performed by Disc method, using standard assay procedures and the respective microorganism in each case. 15 μl of each sample in DMSO-H H2 O (1:1) is pipetted on to separate 0.25" absorbent paper disc and the assay is performed following routine techniques well known in the art. Zone sizes are read after incubation overnight (Bacillus subtilis) and after 4 days of incubation (Penicillium notatum) at various concentrations.

[5] = test system: fungi (Penicillium notatum); assay: antimicrobial activity, disc method, fungi; assay type: cell-based; details: concentration 0.025 to 5 μg/ml
Method: as §1, §2

stability = assay type: physicochemical
hygroscopicity = assay type: physicochemical
Lewis lung carcinoma = details: in vivo; cited from earlier work
C38 colon tumor = details: in vivo; cited from earlier work
LX-1 lung xenograft = details: in vivo; cited from earlier work
[6] = general; precluded further toxicological and pharmacological studies; cited from earlier work
mouse leukemia P388 = details: cited from earlier work
L1210 leukemia = details: in vivo; cited from earlier work
CD8F mouse mammary tumor = details: in vivo; cited from earlier work
B16 melanoma = details: in vivo; cited from earlier work
P388 leukemic cells = details: in vivo; cited from earlier work
Gram-negative bacteria = details: cited from earlier work
mouse leukemia L1210 = details: in vitro, compared with actinomycin D and adriamycin; cited from earlier work
Gram-positive bacteria = details: cited from earlier work
fungi = details: cited from earlier work
MX-1 breast xenograft = details: in vivo; cited from earlier work

Compound: C/C=C/C=C/c1cc2cc3c(c(O)c2c(=O)[nH]1)C1(CC3)C(=O)c2c(O)c3c(c(O)c2C1=O)C(=O)C(OC)=CC3=O (stereo not drawn) [KFMA, potassium salt of fredericamycin A]
- solubility (solubility [1]; Table 1): 1000 µg/mL
- solubility (solubility [1]; solubility studies in water): ~1000 µg/mL
- pH (H2O) (pH of aqueous solution; Table 1): 8.9 ± 0.2
- pH of aqueous solution (pH of aqueous solution; about 1.0 mg/ml in water): 8.65
- T/C value (P388 Lymph. Leukemia; 1 mg/kg level): 178%
- % T/C (P388 Lymph. Leukemia; Expt #1, 0.125 mg/kg, water): 119%
- % T/C (P388 Lymph. Leukemia; Expt #1, 0.25 mg/kg, water): 119%
- % T/C (P388 Lymph. Leukemia; Expt #1, 0.50 mg/kg, water): 153%
- % T/C (P388 Lymph. Leukemia; Expt #1, 1.00 mg/kg, water): 178%
- % T/C: toxicity (P388 Lymph. Leukemia; Expt #1, 2.00 mg/kg, water): Toxic
- % T/C (P388 Lymph. Leukemia; Expt #1, .063 mg/kg, water): 110%
- % T/C (P388 Lymph. Leukemia; Expt #2, 0.125 mg/kg, water): 120%
- % T/C (P388 Lymph. Leukemia; Expt #2, 0.25 mg/kg, water): 132%
- % T/C (P388 Lymph. Leukemia; Expt #2, 0.50 mg/kg, water): 160%
- % T/C (P388 Lymph. Leukemia; Expt #2, 1.00 mg/kg, water): 175%
- % T/C (P388 Lymph. Leukemia; Expt #2, .063 mg/kg, water): 112%
- activity against P388 leukemia, in words (P388 Lymph. Leukemia; all experiments performed): significant activity
- differences between male and female mice (P388 Lymph. Leukemia; male vs female mice): no differences observed
- in vitro cytotoxic activity as compared to that of FMA [2]: equal or better
- solubility in chloroform-methanol-acetic acid (87:3:3) and methanol (solubility [3]): Soluble
- solubility in dimethylacetamide, dimethylformamide, pyridine (solubility [3]): Readily Soluble
- solubility in ethylacetate, acetonitrile and chloroform (solubility [3]): Sparingly soluble
- solubility in hexanes, ether, acetone, benzene and carbon tetra chloride (solubility [3]): Insoluble
- solubility in dimethyl sulfoxide (solubility [3]; Readily Soluble): 8 mg/1.5 ml
- solubility (solubility [3]; dmso-saline 5:95, organic solvent or mixture, read-out: solubility in dimethylsulfoxide-saline (5:95)): 1000 µg/mL
- solubility (solubility [3]; dmso-saline 10:90, organic solvent or mixture, solution is transparent blue, read-out: solubility in dimethylsulfoxide-saline (10:90)): 1000 µg/mL
- solubility (solubility [3]; dmso-water 1:1, organic solvent or mixture, Readily Soluble, read-out: solubility in dimethylsulfoxide-water (1:1)): 3000 µg/mL
- solubility (solubility [3]; dmso-water 5:95, organic solvent or mixture, read-out: solubility in dimethylsulfoxide-water (5:95)): 1500 µg/mL
- solubility (solubility [3]; water, hand shaking 1 minute, vortexing 3 minutes, read-out: solubility in water): ~1000 µg/mL
- zone size [4]: 9.5 mm
- zone size [5]: 9.5 mm
- stability of DMSO solution (anhydrous) (stability; 0° C./dark): several days
- stability of anhydrous salt (stability; anhydrous, room temp.): stable
- stability of anhydrous salt, duration in words (stability; anhydrous, room temperature): stable for extended period of time
- temperature safely heated to with no decomposition (stability; high vacuum, 4 hrs): up to 60 °C
- hydrolysis to fredericamycin A (stability; in presence of moisture, acid): Easily hydrolysable
- stability of DMSO solution (anhydrous) (stability; room temp, 4 hrs): fairly stable
- storage stability (stability; sealed under nitrogen, anhydrous, amber container, 0° C. over silica gel): stable for several months
- stability of aqueous solution (stability; water, about 1.0 mg/ml, room temperature): stable for almost an hour

Compound: C/C=C/C=C/c1cc2cc3c(c(O)c2c(=O)[nH]1)C1(CC3)C(=O)c2c(O)c3c(c(O)c2C1=O)C(=O)C(OC)=CC3=O (stereo not drawn) [Na-FMA, sodium salt of fredericamycin A]
- solubility (solubility [1]; hand shake and sonication (15 minutes)): 500 µg/mL
- pH (water) (pH of aqueous solution; 0.5 mg/ml in water): 9.2±0.5
- hygroscopicity (hygroscopicity): highly hygroscopic
- stability of aqueous solution on longer standing (stability; water, room temperature): hydrolyzing back to fredericamycin A

Compound: C/C=C/C=C/c1cc2cc3c(c(O)c2c(=O)[nH]1)C1(CC3)C(=O)c2c(O)c3c(c(O)c2C1=O)C(=O)C(OC)=CC3=O (stereo not drawn) [fredericamycin A]
- activity against Lewis lung carcinoma (Lewis lung carcinoma): ineffective
- solubility in water, in words (solubility [1]): almost insoluble
- solubility in water, in words (solubility [1]; listed as FMA): virtually insoluble
- activity against C38 colon tumor (C38 colon tumor): ineffective
- activity against LX-1 lung xenograft (LX-1 lung xenograft): ineffective
- solubility [6]: poor solubility
- % T/C (P388 Lymph. Leukemia; 0.06 mg/kg, DMSO): 122%
- % T/C (P388 Lymph. Leukemia; 0.12 mg/kg, DMSO): 146%
- % T/C (P388 Lymph. Leukemia; 0.25 mg/kg, DMSO): 134%
- % T/C (P388 Lymph. Leukemia; 0.50 mg/kg, DMSO): 200%
- % T/C (P388 Lymph. Leukemia; 1.00 mg/kg, DMSO): 160%
- % T/C: toxicity (P388 Lymph. Leukemia; >1.00 mg/kg, DMSO): Toxic
- cytotoxicity (mouse leukemia P388; in general, cells not specified): very cytotoxic
- ED50 against P388 (mouse leukemia P388; in vitro, compared with actinomycin D and adriamycin): compared closely to the reported values for actinomycin D and adriamycin
- activity against L1210 leukemia (L1210 leukemia): ineffective
- reducing the median tumor weight (CD8F mouse mammary tumor): effective
- activity against B16 melanoma (B16 melanoma): marginal activity
- extending the life span of mice inoculated with P388 (P388 leukemic cells): effective
- activity against Gram-negative bacteria (Gram-negative bacteria): no activity
- ED50 against L1210 (mouse leukemia L1210): compared closely to the reported values for actinomycin D and adriamycin
- activity against Gram-positive bacteria (Gram-positive bacteria): good activity
- activity against fungi (fungi): good activity
- activity against MX-1 breast xenograft (MX-1 breast xenograft): ineffective
